The source of these data is PMC5524571 (Molecular cell, 2012).

The target of series [1] is T1, MdfA (Escherichia coli, UniProt P0AEY8). As to conditions: several pH values (pH 6 to 8.5).
Series [2] concerns the target T1, MdfA. Put plainly: substrate-induced proton release from purified MdfA. As to conditions: unbuffered solution, 2 µM MdfA, 500 µM EtBr. Format: binding.
The next series deals with Asp34 (UniProt position 34, TYIGNDMIQPG). Put plainly: fluorescence. As to conditions: Detergent-solubilised, folded; competition between TPP and protons.

T1 sequence (P0AEY8 whole entry): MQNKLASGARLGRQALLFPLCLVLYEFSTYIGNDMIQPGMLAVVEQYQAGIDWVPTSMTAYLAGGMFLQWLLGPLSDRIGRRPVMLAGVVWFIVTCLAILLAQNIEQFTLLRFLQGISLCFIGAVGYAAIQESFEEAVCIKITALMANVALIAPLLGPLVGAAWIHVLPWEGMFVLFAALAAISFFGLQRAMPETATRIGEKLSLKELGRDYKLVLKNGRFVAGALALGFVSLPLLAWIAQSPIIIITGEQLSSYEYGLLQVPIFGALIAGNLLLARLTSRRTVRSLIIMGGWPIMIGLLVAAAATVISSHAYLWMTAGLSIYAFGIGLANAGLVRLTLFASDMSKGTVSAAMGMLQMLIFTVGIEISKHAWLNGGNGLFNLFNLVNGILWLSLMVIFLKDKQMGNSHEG

`c1ccc([P+](c2ccccc2)(c2ccccc2)c2ccccc2)cc1` [TPP]: the dissociation constant result at MdfA [1] is reported as “the affinity of purified, detergent-solubilized MdfA for its substrate tetraphenylphosphonium (TPP) was measured”.

Take `CC[n+]1c(-c2ccccc2)c2cc(N)ccc2c2ccc(N)cc21` [ethidium bromide]: the “substrate-induced proton release from purified MdfA (pH electrode)” value on MdfA [2] was “adding TPP or EtBr caused rapid acidification”.

By pKa is commonly meant the negative logarithm of the acid dissociation constant. The low end stands for a stronger acid or weaker base, the high end for a weaker acid or stronger base. As for “Multidrug transporter MdfA (wild type, His6-tagged) (Escherichia coli)”, the pKa with Asp34 is on record as 6.84 ± 0.06.
